# Data reported in patent US10258635B2, “Formulations and compositions of vitamin D analogs for treating and preventing cancer and other diseases” (priority 2013, dated 2019).
# Entries after “also recorded” stand apart in the source; their conditions may differ.
# What was measured:
# DU 145 cells = assay: Efficacy study of 25-OH-D3-3-BE in DU 145 tumor-bearing athymic nude mice (oral gavage); assay type: in vivo; conditions: for anti-tumor effect: mouse prostate tumor xenograft model; for average tumor volume at the end of treatment: oral gavage every third day, day 11 to 31
# Method: Male, athymic nude mice (average weight 20 gm) were fed normal rat chow and water ad libitum. They were inoculated with DU 145 cells, grown in culture, in the flank under light anesthesia. […] Administration of the compound was done by oral gavage on every third day (when weights were determined). Treatment started on day 11 and stopped on day 31; and they were left untreated for several additional days (as shown in FIG. 26) when they were sacrificed and blood was collected.
# [1] = tested on: PC-3 (androgen-insensitive prostate cancer) cells; assay: 3H-thymidine incorporation assay, PC-3; assay type: cell-based; conditions: 10^−6 M; for growth reduction of PC-3 cells: relative to EtOH
# Method: (§1) Antiproliferation studies of keratinocytes (normal skin), MCF-7 (breast cancer), PZ-HPV-7 (immortalized normal prostate), LNcap (androgen-sensitive prostate cancer) and PC-3 (androgen-insensitive prostate cancer) cells, treated with 10^−6M of 25-OH-D3-3-BE (AMPI-105) or 1,25(OH)2D3 (bioactive Vitamin D3 hormone) were performed with a ^3H-thymidine incorporation assay
# (§2) PZ-HPV-7 cells were grown in MCDB media containing pituitary extract, epidermal growth factor (EGF) and 1% penicillin/streptomycin. Keratinocytes were also grown in the same media with additional PG1 and insulin. PC-3, LNCaP, DU-145 cells were grown in RPMI media containing 10% fetal bovine serum (FBS) and antibiotics. MCF-7 cells were grown in DMEM media containing 10% FBS and antibiotics. LAPC-4 cells were maintained in IMEM media containing antibiotics, 1° % L-glutamine and 10 nM of R1881, a synthetic […]. MC3T3 mouse bone cells were grown in α-MEM media containing 10% FBS and antibiotics. In general, cells were grown in 35 mm dishes to 70-80% confluence and then plated into 24-well plates in respective media. After the cells grew to approximately 70% confluence, they were serum-starved for 20 hours (MCF-7, PC-3, LNCaP and DU-145 cells) followed by incubation with steroid samples. Keratinocytes and PZ-HPV-7 cells, after reaching 70% confluence, were kept in MCDB media without additives for 20 hours before treatment with steroids. In general, reagents were dissolved in ethanol (EtOH), and dilution with the media was adjusted in such a way that the concentration of EtOH was 0.1% v/v.
# (§3) Assays were carried out with six (6) replicates and student's t-test was employed for statistical analysis. Results are expressed relative to EtOH (100%) in FIG. 24.
# [2] = tested on: MCF-7 (breast cancer) cells; assay: 3H-thymidine incorporation assay, MCF-7; assay type: cell-based; conditions: 10^−6M
# Method: as §1
# as §2, with “Keratinocytes and PZ-HPV-7 cells, after reaching 70% confluence, were kept in MCDB media without additives for 20 hours before treatment with steroids. In general, reagents were dissolved in ethanol (EtOH), and dilution with the media was adjusted in such a way that the concentration of EtOH was 0.1% v/v.” left out
# [3] = tested on: keratinocytes (normal skin); assay: 3H-thymidine incorporation assay, keratinocytes; assay type: cell-based; conditions: 10^−6M
# Method: as §1
# as §2, with “Keratinocytes and PZ-HPV-7 cells, after reaching 70% confluence, were kept in MCDB media without additives for 20 hours before treatment with steroids. In general, reagents were dissolved in ethanol (EtOH), and dilution with the media was adjusted in such a way that the concentration of EtOH was 0.1% v/v.” left out
# [4] = tested on: PZ-HPV-7 (immortalized normal prostate) cells; assay: 3H-thymidine incorporation assay, PZ-HPV-7; assay type: cell-based
# Method: as §1
# as §2, with “Keratinocytes and PZ-HPV-7 cells, after reaching 70% confluence, were kept in MCDB media without additives for 20 hours before treatment with steroids. In general, reagents were dissolved in ethanol (EtOH), and dilution with the media was adjusted in such a way that the concentration of EtOH was 0.1% v/v.” left out
# MC3T3 mouse bone cells = assay: Cell counting assay, MC3T3; assay type: cell-based; conditions: 48 hr; 10^−6 M 25-OH-D3-3-BE, 10^−7 M 1,25(OH)2D3; not serum-starved
# Method: as §2
# (§4) It should be noted that in this assay cells were not serum-starved prior to addition of the reagents, and 10^−7 M of 1,25(OH)2D3 had little effect on all the cells.
# LAPC-4 cells = assay: Cell counting assay, LAPC-4; assay type: cell-based; conditions: 24 hours; 10^−6 M 25-OH-D3-3-BE, 10^−7 M 1,25(OH)2D3; not serum-starved
# Method: as §2, §4
# MCF-7 cells = assay: Cell counting assay, MCF-7; assay type: cell-based; conditions: 48 hr; 10^−6 M 25-OH-D3-3-BE, 10^−7 M 1,25(OH)2D3; not serum-starved
# Method: as §2, §4
# LNCaP cells = assay: Cell counting assay, LNCaP; assay type: cell-based; conditions: 24 hours; 10^−6 M 25-OH-D3-3-BE, 10^−7 M 1,25(OH)2D3; not serum-starved
# Method: as §2, §4
# [5] = tested on: LNCaP (androgen-sensitive prostate cancer) cells; assay: 3H-thymidine incorporation assay, LNCaP (Example 13); assay type: cell-based
# Method: as §1, §2, §3
# [6] = tested on: DU-145 human prostate cancer cells; assay: DU-145 xenograft efficacy, p.o. administration (Example 11); assay type: in vivo, nude mice; conditions: p.o.; calcitriol 0.5 μg/kg and 1.0 μg/kg; AMPI-109 0.5 μg/kg
# normal kidney cells = assay: 3H-thymidine incorporation assay in normal kidney cells; assay type: cell-based; conditions: 10^−6M
# [7] = tested on: DU 145 human androgen-insensitive prostate cancer cells; assay: AMPI-107 in DU 145 xenograft, i.p. administration (Example 17); assay type: in vivo
# Description: (§5) Male, athymic mice (average weight 20 gm) were fed normal rat chow and water ad libitum. They were inoculated with DU 145 human androgen-insensitive prostate cancer cells (10^6), grown in culture in the flank under light anesthesia. […] Treatment started on day 11 and stopped on day 30; and they were left untreated for two (2) additional days when they were sacrificed.
# [8] = tested on: DU-145 Prostate Cancer Cells; assay: Cell-counting antiproliferative evaluation, DU-145; assay type: cell-based, human; conditions: Calcitrol 10^−6M, AMPI-107 10^−5M; dosed days 1, 3, 5, counted 7th day
# Method: (§6) Prostate cancer cells (DU-145, PC-3 and LNCaP) were grown in DMEM medium with 10% FBS, antibiotics, etc. […] Results are designated as percentage of ethanol control.
# [9] = tested on: DU 145 human androgen-insensitive prostate cancer cells; assay: AMPI-107 in DU 145 xenograft, p.o. administration (Example 17); assay type: in vivo
# Description: as §5
# [10] = tested on: LNCaP prostate cancer cells; assay: Cell-counting antiproliferative evaluation, LNCaP; assay type: cell-based; conditions: Calcitrol 10^−6M, AMPI-107 10^−5M; dosed days 1, 3, 5, counted 7th day
# Method: as §6
# [11] = tested on: RCC 54 kidney cancer cells; conditions: 7.5×10^−7 to 10^−6M
# Method: In a typical assay cells were grown to 50-60% confluence in 24-well plates in respective media containing 5% FBS, and serum starved for 20 hours, followed by treatment with various agents (in 0.1% ethanolic solution) or ethanol (vehicle) in serum-containing medium for 16 hours. After the treatment media was removed from the wells and replaced with media containing ^3H-thymidine (Sigma, 0.1 μCi) per well, and the cells were incubated for 3 hours at 37° C. After this period media was removed by aspiration and the cells were washed thoroughly (3×0.5 ml) with PBS. Ice-cold 5% perchloric acid solution (0.5 ml) was added to each well and the cells were incubated on ice for 20 minutes. After this incubation, perchloric acid was removed by aspiration, replaced with 0.5 ml of fresh perchloric acid solution and the cells were incubated at 70° C. for 20 minutes. Solution from each well was mixed with scintillation fluid and counted in a liquid scintillation counter. There were eight (8) wells per sample; statistics was carried out by Student's t test.
# DU-145 cells = assay: 3H-thymidine incorporation assay in DU-145 cells; assay type: cell-based, human; conditions: for anti-proliferative effect in DU-145 cells: 10^−6M, separate experiment
# [12] = tested on: Normal prostate WPMY cells; assay: Viability testing by MTT reduction in normal prostate cells; assay type: cell-based; conditions: 24 hours; AMPI-107 1 and 10 μM, Calcitrol 1 μM
# Method: MTT is reduced in metabolically active cells, in part by the action of dehydrogenase enzymes, to generate reducing equivalents such as NADH and NADPH. The resulting intracellular purple formazan can be solubilized and quantified by spectrophotometry. After 5 minutes at room temperature, absorbances in plates were measured using a plate analyzer set for in dual wavelength comparisons at wavelength of 540 nm with a reference wavelength of 620 nm.
# [13] = tested on: PC-3 Prostate Cancer Cells; assay: Cell-counting antiproliferative evaluation, PC-3; assay type: cell-based; design: dose or concentration left out as unconfirmed; conditions: dosed days 1, 3, 5, counted 7th day
# Method: as §6
# 24-OHase = assay: Message for 24-OHase in LNCaP cells; assay type: cell-based
compound,measurement,setting,value
25-hydroxyvitamin D3-3-epoxide [AMPI-106],anti-tumor effect,DU 145 cells,strong anti-tumor activity
"C=C1CC[C@H](O)C/C1=C/C=C1\CCC[C@]2(C)[C@@H]([C@H](C)CCCC(C)(C)O)CC[C@@H]12 [25-OH-D3, 25-hydroxyvitamin D3, reference compound]",growth reduction of PC-3 cells,[1],marginal antiproliferative effect
"C=C1CCC(OC(=O)CBr)CC1=CC=C1CCCC2(C)C1CCC2C(C)CCCC(C)(C)O (stereo not drawn) [AMPI-105, 25-hydroxyvitamin D3-3-bromoacetate]","growth inhibition in MCF-7 cells relative to 1,25(OH)2D3",[2],"weaker than 1,25(OH)2D3"
same,"growth inhibition in keratinocytes relative to 1,25(OH)2D3",[3],"stronger than an equivalent amount of 1,25 (OH)2D3"
same,cytotoxicity to PC-3 cells,[1]; phase contrast microscope,cytotoxic
same,growth reduction of PC-3 cells,[1],90%
same,growth inhibition of PZ-HPV-7 cells,"[4]; 10^−6 M, relative to EtOH",approximately 50%
same,number of MC3T3 cells,MC3T3 mouse bone cells,affected to a much lesser extent
same,number of LAPC-4 cells,LAPC-4 cells,sharply reduced number of cells
same,number of MCF-7 cells,MCF-7 cells,affected to a much lesser extent
same,number of LNCaP cells,LNCaP cells,sharply reduced number of cells
same,average tumor volume at the end of treatment,DU 145 cells; 0.25 μg/kg,650 mm^3
same,average tumor volume at the end of treatment,DU 145 cells; 0.5 μg/kg,500 mm^3
same,gross weight of the animals versus untreated,DU 145 cells; during and after the treatment,no significant difference
same,anti-tumor effect,DU 145 cells,strong anti-tumor activity
same,anti-tumor effect,DU 145 cells; listed as 25-OH-D3-3-BE,dose-dependent anti-tumor effect
same,cytotoxicity to LNCaP cells,"[5]; 10^−6 M, phase contrast microscope",cytotoxic
same,growth inhibition of LNCaP cells,"[5]; 10^−6 M, relative to EtOH",~98%
"C=C1/C(=C\C=C2/CCC[C@]3(C)[C@@H]([C@H](C)CCCC(C)(C)O)CC[C@@H]23)C[C@@H](O)C[C@@H]1O [calcitriol, 1,25-dihydroxyvitamin D3, reference compound]",body weight,[6],significant loss in body weight
same,impact on normal kidney cells versus control,normal kidney cells,neither Calcitriol nor AMPI-109 had any statistically different impact
same,toxicity (body weight),"[7]; mouse, in vivo, ip, 1 mg/kg",clearly toxic as evidenced by considerable loss of body weight
same,growth inhibitory activity in DU-145 cells,[8],approximately similar growth inhibitory activity
same,growth reduction of PC-3 cells,[1],70%
same,toxicity (body weight),"[9]; mouse, in vivo, po, 1 mg/kg",clearly toxic as evidenced by considerable loss of body weight
same,growth inhibition of LNCaP cells,[10],strongly inhibited the growth
same,inhibition at 1 µM,"[4]; Prostate cell, read-out: growth inhibition of PZ-HPV-7 cells",~65%
same,number of MC3T3 cells,MC3T3 mouse bone cells,little effect
same,reduction of proliferation of RCC 54 kidney cancer cells,[11],did not have any statistically different impact
same,antiproliferative effect in DU-145 cells,"DU-145 cells; 2.5×10^−7M to 10^−6M, 20 hours",no effect
same,anti-proliferative effect in DU-145 cells,DU-145 cells,failed to produce any discernible anti-proliferative effect
same,cell metabolism (MTT reduction),[12],"slightly, but significantly reduce cell metabolism"
same,number of LAPC-4 cells,LAPC-4 cells,little effect
same,number of MCF-7 cells,MCF-7 cells,little effect
same,number of LNCaP cells,LNCaP cells,little effect
same,growth inhibition of PC-3 cells,[13],strongly inhibited the growth
same,message for 24-OHase,24-OHase,up regulated
same,inhibition at 1 µM,"[5]; Homo sapiens, LNCaP, read-out: growth inhibition of LNCaP cells",~60%
C=C1/C(=C\C=C2/CCC[C@]3(C)[C@@H]([C@H](C)/C=C/[C@@H](O)C4(C(=O)OCCCC)CC4)CC[C@@H]23)C[C@@H](O)C[C@@H]1O [ZK 159222],message for 24-OHase,24-OHase,obliterated
Vitamin D3-3-epoxide [AMPI-107],efficacy on tumor size,"[7]; 1 mg/kg i.p. every third day, day 11 to 30",strongly reduced tumor size
same,toxicity (body weight),"[7]; i.p., hormone 0.5 and 1.0 μg/kg, MPI 107 1 mg/kg",completely non-toxic
same,growth inhibitory activity in DU-145 cells,[8],approximately similar growth inhibitory activity; also recorded: equally effective
same,efficacy on tumor size,"[9]; 1 mg/kg p.o. every third day, day 11 to 30",strongly reduced tumor size
same,toxicity (body weight),"[9]; p.o., hormone 0.5 and 1.0 μg/kg, MPI 107 1 mg/kg",completely non-toxic
same,growth inhibition of LNCaP cells,[10],strongly inhibited the growth and significantly stronger effect and more
"C=C1/C(=C\C=C2/CCC[C@]3(C)[C@@H]([C@H](C)/C=C/C=C/C(O)(CC)CC)CC[C@@H]23)C[C@@H](O)C[C@@H]1O [EB-1089, reference compound]",anti-proliferative effect in DU-145 cells,DU-145 cells,failed to produce any discernible anti-proliferative effect
